Activity calls are given as the source filed them. The calls are words filed in the database; no cut-off is given here.

One experiment relates to Cortical neurone. Put plainly: Neuroprotective activity in Sprague-Dawley rat cortical neurons assessed as inhibition of amyloid beta (25 to 35 residues)-induced neurotoxicity compound pretreated at 10 to 50 uM for 2 hrs followed by addition of 10 uM amyloid beta (25 to 35 residues) for 40 hrs by MTT assay. The experiment is classed as functional.
A short description of experiment [1]: Neuroprotective activity in Sprague-Dawley rat cortical neurons assessed as inhibition of amyloid beta (25 to 35 residues)-induced neurotoxicity compound pretreated at 50 uM for 2 hrs followed by addition of 10 uM amyloid beta (25 to 35 residues) for 40 hrs by MTT assay. The experiment is classed as functional, Cortical neurone.

On to `CO[C@H](c1ccccc1)[C@@H]1[C@@H](c2ccccc2)[C@H](O)C(=O)N1C`, for which the inhibition entry in the experiment on Cortical neurone is “inactive”.
`CO[C@@H](c1ccccc1)[C@@H]1[C@@H](c2ccccc2)[C@H](O)C(=O)N1C`: in experiment [1], the “inhibition (INH)” value is on record as 22.24%.
Consider `CO[C@H](c1ccccc1)[C@H]1[C@H](c2ccccc2)[C@H](O)C(=O)N1C`, for which the inhibition result in the experiment with Cortical neurone was “inactive”.
